The test system of assay [1] is Arabidopsis T1 seeds, PPX2L Susceptible plasmid. Description: T1 seed germination on herbicide-containing medium, PPX2L Susceptible plasmid. The following applies: for Number of Germinated Seedlings on Imazethapyr: approximately 1000 seeds. The assay is classed as in vivo, Arabidopsis thaliana. As to the method:
(§1) Reverse transcription PCR (RT-PCR) products from resistant and sensitive biotypes were used as template for cloning the resistant and sensitive genes through PCR amplifications. These amplifications were performed using the ligation independent cloning (LIC) adapted oligonucleotide primers specific to PPX2L, P1 and P2, and cloned into the LIC site of a plant transformation vector, using techniques known to those skilled in the art. These primers used in these experiments were as follows: P1, […], SEQ ID NO:49; P2, […], SEQ ID NO:50; P3, […], SEQ ID NO:51; P4, […], SEQ ID NO:52; P5, […], SEQ ID NO:53; and P6, […], SEQ ID NO:54. These plant transformation vectors contained an imidazolinone tolerant Arabidopsis AHAS large subunit gene under the control of the actin promoter and octopine synthase terminator, which allowed selection on Pursuit (imazethapyr) for all transformants, especially for selection of lactofen […] transformants. For expression of the resistant and sensitive genes in Arabidopsis, the coding sequences for each resistant or sensitive gene were inserted after the parsley ubiquitin promoter and before the nopaline synthase terminator. Several clones each of susceptible and resistant PPX2L were obtained from different biotype isolates and each was sequenced.
(§2) Three vector plasmids were constructed: VC-MBW101-1, containing the susceptible version of the PPX2L gene (SEQ ID NO:47); VC-MBW102-1, containing the resistant version of the PPX2L gene (SEQ ID NO:25); and VC-MBW103-1, containing the SRS version of the PPX2L gene (SEQ ID NO:45); All three of these plasmids were transformed into Agrobacterium tumefaciens. as follows:
(§3) For the transformation, 6-week-old Arabidopsis plants, which had just started flowering were immersed for 10 seconds into the above-described agrobacterial suspension which had previously been treated with 10 μl Silwett L77 (Crompton S. A., Osi Specialties, CH). The method is described in Clough and Bent. 1998. Plant J. 16:735-743.
(§4) These T1 generation seeds, which represented a collection of a few transformed seeds in a population of untransformed seeds, were sterilized by liquid sterilization (rinsing in a solution of 400 mL of ddH2O+100 mL of bleach+250 uL of 20% SDS, followed by rinsing in sterile distilled water).
(§5) These T1 seeds were put into 0.8% agarose and plated onto MS media with 1% sucrose, Cefotaxmine (500 ug/mL) and benomyl (2 ug/mL). For selection of transformants, these contained either 100 nM Pursuit (imazethapyr), 70 nM Cobra (lactofen) or 125 nM Cobra. Arabidopsis ecotype Columbia-0 (Co10) was also plated as a control on all types of plates and the imidazolinone tolerant mutant csr1-2 was plated on Pursuit plates as a positive control. The seeds were stratified on the plates for three days at 4° C.
(§6) The plates were then incubated in a Percival Scientific (Perry, Iowa) growth chamber at 21-22° C. and 15 hours of light for six days and scored for viable seedlings on the selective plates.
(§7) The numbers of seeds were the raw counts of actual seeds on the selection plates. The numbers of seedlings were the number of green seedlings found on each plate, indicative of resistance to the selective agent (lactofen or imazethapyr). If there were no seedlings, there were no resistant plants. Only the “resistant” forms of PPX2L conferred lactofen tolerance, confirming that the isolated PPX2L coding sequence from the herbicide resistant waterhemp was sufficient to confer the PPO-inhibiting herbicide resistance phenotype on transgenic plants into which the plant expressible sequence was introduced. Plants obtained from the imazethapyr selection indicated the presence of transformed seeds with the sensitive form of PPX2L. Without wishing to be bound by any particular theory, the single seedling on transformation set 5 is believed to have been a stray resistant transformant.

Assay [2] relates to Arabidopsis Columbia-0 (untransformed control). Nature of the assay: Seed germination on herbicide-containing medium, untransformed control. The assay is classed as in vivo, Arabidopsis thaliana. As to the method:
as §5, §6, §7

In assay [3] the test system is Arabidopsis T1 seeds, PPX2L Resistant plasmid. Description: T1 seed germination on herbicide-containing medium, PPX2L Resistant plasmid. The assay is classed as in vivo, Arabidopsis thaliana. The following applies: for Number of Germinated Seedlings on Imazethapyr: approximately 1000 seeds. As to the method: as §1, §2, §3, §4, §5, §6, §7
Assay [4] has as its system A. tuberculatus S (susceptible) parent. Description: Herbicide dose-response on whole plants, S parent. The assay is classed as in vivo, Amaranthus tuberculatus (waterhemp). The following applies: S line.
In assay [5] the test system is Arabidopsis T1 seeds, PPX2L "SRS" plasmid. Description: T1 seed germination on herbicide-containing medium, PPX2L SRS plasmid. The assay is classed as in vivo, Arabidopsis thaliana. The following applies: for Number of Germinated Seedlings on Imazethapyr: approximately 1000 seeds. As to the method: as §1
In addition, a chimeric “SRS” gene (see SEQ ID NO:45), which has the 5′ end of the susceptible coding sequence up to the unique XhoI site, the internal XhoI to DraIII fragment of the resistant coding sequence containing the resistance mutation, and the 3′ end of the susceptible from the unique DraIII site to the stop codon, was produced by amplifying sensitive RT-PCR template with P1 and P3 as well as with P6 and P2. Resistant template was also amplified with P4 and P5. These amplicons were digested with XhoI and DraIII and purified, then ligated. The ligation reaction was cloned into the LIC site of the plant transformation vector, as above.
as §2, §3, §4, §5, §6
The numbers of seeds were the raw counts of actual seeds on the selection plates. The numbers of seedlings were the number of green seedlings found on each plate, indicative of resistance to the selective agent (lactofen or imazethapyr). If there were no seedlings, there were no resistant plants. […]

As for `CCOC(=O)C(C)OC(=O)c1cc(Oc2ccc(C(F)(F)F)cc2Cl)ccc1[N+](=O)[O-]` (racemic) [Lactofen, (±)-2-ethoxy-1-methyl-2-oxoethyl 5-{2-chloro-4-(trifluoromethyl)phenoxy}-2-nitrobenzoate], the “Calculated Number of Germinated Seedlings per 1000 Seeds for both rates of Lactofen” value in assay [1] (transformation set 4-291) is recorded as 0; in assay [1] (transformation set 5), 1; in assay [2], 0; in assay [3] (transformation set 1) it was 7; in assay [3] (transformation set 2), 3; in assay [3] (transformation set 3) it was 2. The entries for the “Calculated Number of Germinated Seedlings per 1000 Seeds for both rates of Lactofen” value in assay [5] (transformation set 4-390) and in assay [5] (transformation set 4-414) were 9 and 5, respectively. The “Number of Germinated Seedlings on 70 nM lactofen” value amounted to 0 in assay [1] (transformation set 4-291, 500 seeds plated); 1 in assay [1] (transformation set 5, 460 seeds plated); 0 in assay [2] (884 seeds plated, six days); 4 in assay [3] (transformation set 1, 640 seeds plated); 3 in assay [3] (transformation set 2, 1276 seeds plated); 3 in assay [3] (transformation set 3, 980 seeds plated). The “Number of Germinated Seedlings on 70 nM lactofen” value in assay [5] (transformation set 4-390, 1176 seeds plated) is on record as 14; in assay [5] (transformation set 4-414, 1036 seeds plated), 7. Also, the “Number of Germinated Seedlings on 125 nM Lactofen” value in assay [1] (transformation set 4-291, 680 seeds plated) is listed as 0; in assay [1] (transformation set 5, 764 seeds plated), 0; in assay [2] (600 seeds plated) it was 0; in assay [3] (transformation set 1, 560 seeds plated) it was 4; in assay [3] (transformation set 2, 1152 seeds plated) it was 4; in assay [3] (transformation set 3, 1664 seeds plated), 1. Also, the “Number of Germinated Seedlings on 125 nM Lactofen” value came to 6 in assay [5] (transformation set 4-390, 1160 seeds plated) and 2 in assay [5] (transformation set 4-414, 880 seeds plated). The “GR50 (growth reduction by 50%) S” value came to 0.2 g ai ha^−1 in assay [4] (10 DAT) and 0.4 g ai ha^−1 in assay [4] (15 DAT).

Regarding `O=C(O)c1cc(Oc2ccc(C(F)(F)F)cc2Cl)ccc1[N+](=O)[O-]` [Acifluorfen, 5-{2-chloro-4-(trifluoromethyl)phenoxy}-2-nitrobezoic acid], the “GR50 (growth reduction by 50%) S” value in assay [4] (10 DAT) is 1.6 g ai ha^−1.

Consider `CCc1cnc(C2=NC(C)(C(C)C)C(=O)N2)c(C(=O)O)c1` (centres unmarked) [Imazethapyr], for which the “Number of Germinated Seedlings on Imazethapyr” value in assay [1] (transformation set 4-291, 100 nM Pursuit) stood at 4; in assay [1] (transformation set 5, 100 nM Pursuit), 12; in assay [2] (100 nM Pursuit, approximately 1000 seeds), 0; in assay [3] (transformation set 1, 100 nM Pursuit), 9; in assay [3] (transformation set 2, 100 nM Pursuit), 9; in assay [3] (transformation set 3, 100 nM Pursuit), 6. Also, the “Number of Germinated Seedlings on Imazethapyr” value was determined as 10 in assay [5] (transformation set 4-390, 100 nM Pursuit) and 11 in assay [5] (transformation set 4-414, 100 nM Pursuit).

(Values after US7842856B2, “Herbicide resistance gene, compositions and methods” (The Board of Trustees of the University of Illinois, priority 2005, dated 2010).)
